Experimental data reported in patent US6737383B1, “Herbicidal oxadiazolidines” (priority 1999, dated 2004).

Legend:
bamyardgrass = assay: Test B flood test barnyardgrass; format: in vivo, Echinochloa crus-galli; details: for Plant response rating, Barnyardgrass (0 to 10 scale, 0 is no effect, 10 is complete control): Rate 62 g/ha
Procedure: (§1) At the same time, these crop and weed species were also treated with postemergence applications of test chemicals formulated in the same manner. Plants ranged in height from 2 to 18 cm (1- to 4-leaf stage) for postemergence treatments. Plant species in the flood test consisted of rice (Oryza sativa), smallflower flatsedge (Cyperus difformis), duck salad (Heteranthera limosa) and bamyardgrass (Echinochloa crus-galli) grown to the 2-leaf stage for testing. Treated plants and controls were maintained in a greenhouse for twelve to sixteen days, after which all species were compared to controls and visually evaluated. Plant response ratings, summarized in Table B, are based on a scale of 0 to 10 where 0 is no effect and 10 is complete control. A dash (−) response means no test result.

rice = assay: Test B flood test rice; format: in vivo, Oryza sativa; details: Pre-emergence
Procedure: as §1

duck salad = assay: Test B flood test duck salad; format: in vivo, Heteranthera limosa; details: for Plant response rating, Ducksalad (0 to 10 scale, 0 is no effect, 10 is complete control): Rate 62 g/ha
Outline: (§2)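 Flood test on plants grown to the 2-leaf stage; treated plants kept in greenhouse twelve to sixteen days, then visually rated against controls on a 0 (no effect) to 10 (complete control) scale.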

smallflower flatsedge = assay: Test B flood test smallflower flatsedge; format: in vivo, Cyperus difformis; details: for Plant response rating, S. Flatsedge (0 to 10 scale, 0 is no effect, 10 is complete control): Rate 62 g/ha
Outline: as §2

giant foxtail = assay: Test B pre/postemergence giant foxtail; format: in vivo, Setaria faberii; details: Preemergence
Outline: (§3)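 Test chemicals in a non-phytotoxic solvent mixture with surfactant were sprayed preemergence onto planted seeds and postemergence onto plants 2 to 18 cm tall (1- to 4-leaf stage). After twelve to sixteen days in a greenhouse, injury was visually rated against untreated controls from 0 (no effect) to 10 (complete control).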

bedstraw = assay: Test B pre/postemergence bedstraw; format: in vivo, Galium aparine; details: Preemergence
Outline: as §3

soybean = assay: Test B pre/postemergence soybean; format: in vivo, Glycine max; details: Preemergence
Outline: as §3

wheat = assay: Test B pre/postemergence wheat; format: in vivo, Triticum aestivum; details: Preemergence
Outline: as §3

morningglory = assay: Test B pre/postemergence morningglory; format: in vivo, Ipomoea hederacea; details: Preemergence
Outline: as §3

velvetleaf = assay: Test B pre/postemergence velvetleaf; format: in vivo, Abutilon theophrasti; details: Preemergence
Outline: as §3

pigweed = assay: Test B pre/postemergence pigweed; format: in vivo, Amaranthus retroflexus; details: Preemergence
Outline: as §3

sugar beet = assay: Test B pre/postemergence sugar beet; format: in vivo, Beta vulgaris; details: Preemergence
Outline: as §3

cocklebur = assay: Test B pre/postemergence cocklebur; format: in vivo, Xanthium strumarium; details: Preemergence
Outline: as §3

purple nutsedge = assay: Test B pre/postemergence purple nutsedge; format: in vivo, Cyperus rotundus; details: Preemergence
Outline: as §3

wild oat = assay: Test B pre/postemergence wild oat; format: in vivo, Avena fatua; details: Preemergence
Outline: as §3

surinam grass = assay: Test B pre/postemergence surinam grass; format: in vivo, Brachiaria decumbens; details: Preemergence
Outline: as §3

crabgrass = assay: Test B pre/postemergence crabgrass; format: in vivo, Digitaria sanguinalis; details: Preemergence
Outline: as §3

blackgrass = assay: Test B pre/postemergence blackgrass; format: in vivo, Alopecurus myosuroides; details: Preemergence
Outline: as §3

rape = assay: Test B pre/postemergence rape; format: in vivo, Brassica napus; details: Preemergence
Outline: as §3

corn = assay: Test B pre/postemergence corn; format: in vivo, Zea mays; details: Preemergence
Outline: as §3

[1] = flood test species, Pre-emergence, visual evaluation after twelve to sixteen days
[2] = Rate 125 g/ha, Pre-emergence, flood test species, scale 0 to 10 where 0 is no effect and 10 is complete control
[3] = Rate 250 g/ha, Pre-emergence, flood-test species, scale 0 to 10, 0 is no effect, 10 is complete control
[4] = Rate 500 g/ha, Pre-emergence, flood test species, scale 0 to 10 (0 no effect, 10 complete control)
[5] = Rate 62 g/ha, scale of 0 to 10 where 0 is no effect and 10 is complete control
[6] = Rate 125 g/ha, scale of 0 to 10 where 0 is no effect and 10 is complete control
[7] = Rate 250 g/ha, scale 0 to 10 (0 no effect, 10 complete control)
[8] = Rate 500 g/ha, scale of 0 to 10 where 0 is no effect and 10 is complete control
[9] = Rate 125 g/ha, under heading Pre-emergence, flood test species, visual evaluation after twelve to sixteen days
[10] = Rate 250 g/ha, Pre-emergence (flood test species), scale 0 to 10, 0 is no effect, 10 is complete control
[11] = Rate 500 g/ha, Pre-emergence section of Table B, 0 to 10 scale (0 no effect, 10 complete control)

## Cc1cc(C)n(Cn2c(=O)on(C(=O)N(c3ccccc3)C(C)C)c2=O)n1 [Compound 346]
bamyardgrass; [1]
  Plant response rating, Barnyardgrass (0 to 10 scale, 0 is no effect, 10 is complete control): 0
bamyardgrass; [2]
  Barnyardgrass plant response rating: 0
bamyardgrass; [3]
  Barnyardgrass plant response rating: 0
bamyardgrass; [4]
  Barnyardgrass plant response rating: 0
rice; Rate 62 g/ha, flood test species, visual evaluation after twelve to sixteen days
  Plant response rating, Rice (0 to 10 scale, 0 is no effect, 10 is complete control): 0
rice; Rate 125 g/ha, flood test species, scale 0 to 10 where 0 is no effect and 10 is complete control
  Rice plant response rating: 0
rice; Rate 250 g/ha, flood-test species, scale 0 to 10, 0 is no effect, 10 is complete control
  Rice plant response rating: 0
rice; Rate 500 g/ha, flood test species, scale 0 to 10 (0 no effect, 10 complete control)
  Rice plant response rating: 0
Duck salad; [1]
  Plant response rating, Ducksalad (0 to 10 scale, 0 is no effect, 10 is complete control): 0
Duck salad; [2]
  Ducksalad plant response rating: 0
Duck salad; [3]
  Ducksalad plant response rating: 0
Duck salad; [4]
  Ducksalad plant response rating: 0
Smallflower flatsedge; [1]
  Plant response rating, S. Flatsedge (0 to 10 scale, 0 is no effect, 10 is complete control): 0
Smallflower flatsedge; [2]
  S. Flatsedge plant response rating: 0
Smallflower flatsedge; [3]
  S. Flatsedge plant response rating: 0
Smallflower flatsedge; [4]
  S. Flatsedge plant response rating: 0

## CCCCCCn1c(=O)on(C(=O)N(c2ccc(F)cc2F)C(C)C)c1=O [Compound 637]
Giant foxtail; [5]
  Giant foxtail plant response rating: 9
Giant foxtail; [6]
  Giant foxtail plant response rating: 10
Giant foxtail; [7]
  Plant response rating, Giant foxtail: 10
Giant foxtail; [8]
  Plant response rating, Giant foxtail: 10
bamyardgrass; [1]
  Plant response rating, Barnyardgrass (0 to 10 scale, 0 is no effect, 10 is complete control): 0
bamyardgrass; [9]
  Barnyardgrass plant response rating (0 to 10 scale, 0 is no effect, 10 is complete control): 0
bamyardgrass; [10]
  Barnyardgrass plant response rating: 0
bamyardgrass; [11]
  Barnyardgrass plant response rating: 0
bedstraw; [5]
  Bedstraw plant response rating: 0
bedstraw; [6]
  Bedstraw plant response rating: 0
bedstraw; [7]
  Plant response rating, Bedstraw: 2
bedstraw; [8]
  Plant response rating, Bedstraw: 4
soybean; [5]
  Soybean plant response rating: 0
soybean; [6]
  Soybean plant response rating: 0
soybean; [7]
  Plant response rating, Soybean: 0
soybean; [8]
  Plant response rating, Soybean: 0
wheat; [5]
  Wheat plant response rating: 0
wheat; [6]
  Wheat plant response rating: 0
wheat; [7]
  Plant response rating, Wheat: 0
wheat; [8]
  Plant response rating, Wheat: 0
morningglory; [5]
  Morningglory plant response rating: 0
morningglory; [6]
  Morningglory plant response rating: 0
morningglory; [7]
  Plant response rating, Morningglory: 0
morningglory; [8]
  Plant response rating, Morningglory: 0
velvetleaf; [5]
  Velvetleaf plant response rating: 0
velvetleaf; [6]
  Velvetleaf plant response rating: 0
velvetleaf; [7]
  Plant response rating, Velvetleaf: 0
velvetleaf; [8]
  Plant response rating, Velvetleaf: 2
pigweed; [5]
  Redroot pigweed plant response rating: 4
pigweed; [6]
  Redroot pigweed plant response rating: 9
pigweed; [7]
  Plant response rating, Redroot pigweed: 7
pigweed; [8]
  Plant response rating, Redroot pigweed: 10
Sugar beet; [5]
  Sugarbeets plant response rating: 0
Sugar beet; [6]
  Sugarbeets plant response rating: 0
Sugar beet; [7]
  Plant response rating, Sugarbeets: 3
Sugar beet; [8]
  Plant response rating, Sugarbeets: 5
cocklebur; [5]
  Cocklebur plant response rating: 0
cocklebur; [6]
  Cocklebur plant response rating: 0
cocklebur; [7]
  Plant response rating, Cocklebur: 0
cocklebur; [8]
  Plant response rating, Cocklebur: 0
Purple nutsedge; [5]
  Nutsedge plant response rating: 0
Purple nutsedge; [6]
  Nutsedge plant response rating: 0
Purple nutsedge; [7]
  Plant response rating, Nutsedge: 0
Purple nutsedge; [8]
  Plant response rating, Nutsedge: 0
Wild oat; [5]
  Wild oats plant response rating: 0
Wild oat; [6]
  Wild oats plant response rating: 0
Wild oat; [7]
  Plant response rating, Wild oats: 0
Wild oat; [8]
  Plant response rating, Wild oats: 3
Surinam grass; [5]
  B. signalgrass plant response rating: 0
Surinam grass; [6]
  B. signalgrass plant response rating: 3
Surinam grass; [7]
  Plant response rating, B. signalgrass: 8
Surinam grass; [8]
  Plant response rating, B. signalgrass: 8
crabgrass; [5]
  Crabgrass plant response rating: 9
crabgrass; [6]
  Crabgrass plant response rating: 9
crabgrass; [7]
  Plant response rating, Crabgrass: 10
crabgrass; [8]
  Plant response rating, Crabgrass: 10
Duck salad; [1]
  Plant response rating, Ducksalad (0 to 10 scale, 0 is no effect, 10 is complete control): 0
Duck salad; [9]
  Ducksalad plant response rating (0 to 10 scale, 0 is no effect, 10 is complete control): 0
Duck salad; [10]
  Ducksalad plant response rating: 0
Duck salad; [11]
  Ducksalad plant response rating: 0
blackgrass; [5]
  Blackgrass plant response rating: 2
blackgrass; [6]
  Blackgrass plant response rating: 3
blackgrass; [7]
  Plant response rating, Blackgrass: 9
blackgrass; [8]
  Plant response rating, Blackgrass: 9
Smallflower flatsedge; [1]
  Plant response rating, S. Flatsedge (0 to 10 scale, 0 is no effect, 10 is complete control): 0
Smallflower flatsedge; [9]
  S. Flatsedge plant response rating (0 to 10 scale, 0 is no effect, 10 is complete control): 0
Smallflower flatsedge; [10]
  S. Flatsedge plant response rating: 0
Smallflower flatsedge; [11]
  S. Flatsedge plant response rating: 0
rape; [5]
  Rape plant response rating: 0
rape; [6]
  Rape plant response rating: 0
rape; [7]
  Plant response rating, Rape: 2
rape; [8]
  Plant response rating, Rape: 3
corn; [5]
  Corn plant response rating: 0
corn; [6]
  Corn plant response rating: 0
corn; [7]
  Plant response rating, Corn: 0
corn; [8]
  Plant response rating, Corn: 0
